The values below come from patent US9155774B2, “Scaffold-kinase interaction blockades and uses thereof in treating cancer” (THE BOARD OF TRUSTEES OF THE LELAND STANFORD JUNIOR …, priority 2011, dated 2015).

For data set [1], the system named is H-RAS^G12V/IκBαM organotypic human tissue. Put plainly: Organotypic human tissue model of RAS-driven neoplastic invasion. Type of data set: cell-based. The procedure:
(§1) Retroviral Transduction. […] Alternatively transformation was achieved through combined infection with an LTR-driven retrovirus expressing oncogenic ER:H-RAS and a separate LTR-driven retrovirus expressing cyclin-dependent kinase 4 (CDK4). Polybrene was added to a final concentration of 5 ug/mL to cell media during infection. Infections were performed at 37° C. with low-speed centrifugation for 1 hour. Expression of these viral constructs was verified in vitro. […] As a control for a RAS-IκBα bicistronic virus (IIR), we also infected a separate pool of keratinocytes with a LacZ control virus. For dual ER:H-RAS and CDK4 infected cells, forty-eight hours after infection cultures were daily treated with either […] 40 hydroxytamoxifen or an equal volume of ethanol (vehicle).
(§2) Human Tissue Model System. […] Pieces with less hair follicles are preferable. […] Subsequently, the epidermis is peeled off. […] Tissue was grown for five to ten days total. For immunofluorescence analysis, tissue was placed in OCT.
(§3) Immunofluorescence and Invasion index. […] Tissue was counterstained with Hoescht to visualize cell nuclei.
Hum Gene Ther 8, 1659-1665 (1997)).

The test system of data set [2] is normal human organotypic tissue expressing LacZ. Nature of the data set: Normal organotypic human tissue homeostasis. The conditions noted are these: drug daily, same concentrations as in neoplastic tissue (UO126 5 μM).
Description: Human Tissue Model System. Dermis can be ordered from National Disease Research Interchange (NDRI) and New York Firefighter Skin Bank. Tissue is inspected for overall thickness as well as continuity across the spectrum. Pieces with less hair follicles are preferable. This tissue is cultures in a mixture of antibiotics and antimyotics for a period of 10-14 days. Subsequently, the epidermis is peeled off. The devitalized dermis is then ready to be repopulated with 2-4×10^5 neonatal human fibroblasts by low speed centrifugation for 1 hour. Tissue is raised to the air-liquid interface and seeded with 0.5-1×10^6 genetically modified human keratinocytes to stimulate differentiation and stratification (Ridky, T. W., et al. Invasive three-dimensional organotypic neoplasia from multiple normal human epithelia. Nat Med 16, 1450-1456 (2010); PrunieRAS, M., et al. Methods for cultivation of keratinocytes with an air-liquid interface. J Invest Dermatol 81, 28-33 (1983)). Tissue was treated with drug/peptide as indicated by application directly into culture media daily. Tissue was grown for five to ten days total. For immunofluorescence analysis, tissue was placed in OCT. For histological analysis, tissue was fixed in 10% formalin (Sigma-Aldrich) and embedded in paraffin.
Immunofluorescence and Invasion index. OCT embedded tissue samples were cut into 7 um sections then fixed and permeabilized by incubation in ice-cold methanol or acetone for 10 minutes at −20° C. followed by blocking in 10% horse serum in PBS for 1 hour. Tissue sections were then incubated with primary antibodies, followed by Alexafluor-488 conjugated or Alexafluor-555 conjugated, goat anti-mouse or goat anti-rabbit secondary antibodies (Molecular Probes). The following antibodies were used: rabbit anti-keratin-5 (1:4000, Covance, PRB-160P), mouse anti-collagen VII (1:200, Millipore, MAB2500), anti-mouse Keratin 10 (1:200, Neomarkers, MS611P), anti-mouse Transglutaminase (1:100, Biomedical Technology, BT-621), anti-rabbit Loricrin (1:200, Covance, PRB-145P), and anti-rabbit Ki67 (1:100, Neomarkers, SP6). Tissue was counterstained with Hoescht to visualize cell nuclei. Microscopy was performed on an Olympus FV1000 scanning laser confocal microscope. For each sample, 30 sequential Z-sections were taken in 3 channels (DAPI—405/450 nm excitation/emission, FITC-488/512 ex/em and TRITC-540/570 ex/em) allowing for subsequent three-dimensional reconstruction analysis. […] Relative invasion index was quantified as number of keratin-positive epithelial cells below the collagen-positive basement membrane zone (BMZ) measured 10 times across 3 independent 20× fields of view. Ki67 quantification was quantified as number of Ki67-positive epithelial cells measured 10 times across 3 independent 20× fields of view. […]
Data set [3] concerns SK-MeI-28 melanoma xenograft tumors. Put plainly: Systemic delivery of WW peptide in vivo by osmotic pump. The conditions noted are these: subcutaneous osmotic pump, 19 mg/kg/day for 14 days. The procedure: (A) Established xenograft tumors derived from BRAFV600E mutant SK-MeI-28 melanoma cancer cells were subcutaneously implanted with osmotic pumps (Alzet model 2002) (indicated by black arrows) which released 19 mg/kg/day of R8-myc-tagged Scrambled or WW peptide for 14 days (indicated by hash bars) with tumor growth quantified by mean average radiance (n=3 mice per group). […] (D) Representative data of tumor growth as quantified by tumor volume±SEM from d28 and d43.
Systemic delivery of WW peptide in vivo. 0.5×10^6 luciferase-expressing SK-MeI-28 were injected into the subcutaneous space of hairless immunodeficient 6-8 week old SCID mice (SHO stock, Charles Rovers). Mouse xenografts were allowed to grow untreated for 1 week. Subsequently, tumors were measured and randomized two groups of similar tumor size. Each group was subcutaneously implanted with osmotic pumps (Alzet, model 2002) releasing 0.5 uL of R8-myc-tagged scrambled or WW peptide per hour for 14 days.
To test the efficacy of systemic delivery of WW peptide in vivo, 0.5×10^6 luciferase-expressing SK-MeI-28 were injected into the subcutaneous space of hairless immunodeficient 6-8 week old SCID mice (SHO stock, Charles Rovers). Mouse xenografts were allowed to grow untreated for 1 week. Subsequently, tumors were measured and randomized two groups of similar tumor size. Each group was subcutaneously implanted with osmotic pumps (Alzet, model 2002) releasing 0.5 uL of scrambled or WW peptide per hour for 14 days.

Data set [4] has as its system ERK. Put plainly: Protein expression analysis of phosphorylated and total ERK (immunoblot / immunohistochemistry). As to conditions: Ras-driven organotypic neoplasia, peptide 10 uM daily. Type of data set: cell-based, human. The procedure: Protein Expression Analysis. Cells were lysed in 20 mM Tris (pH 7.5), 150 mM NaCl, 1 mM EDTA, and 1% NP40 supplemented with complete mini EDTA-free protease inhibitors (Roche) and phosphatase inhibitor cocktails I and II (Sigma-Aldrich). 5-20 ug of lysate were loaded per lane, subjected to 10-12% SDS-PAGE or 16% Tricine electrophoresus (Invitrogen NuPage), and subsequently transfer to PVDF membranes via semidry transfer. Primary antibody incubations were performed overnight at 4° C. Secondary antibody incubations were for 1 hour at room temperature. The following antibodies were used: rabbit anti-ERK1/2 (1:1000, Cell Signaling, 9201), rabbit anti-phosphorylated ERK1/2 (1:1000, Thr202/Tyr204, Cell Signaling, 9201), mouse anti-IQGAP1 (1:400, Upstate, 05-504), rabbit anti-RAS (1:500, Santa Cruz, sc-520), rabbit anti-IκBa (1:500, Cell Signaling, 9242), Rabbit anti-β-Galactosidase (1:1000, Cappel, 55976), rabbit anti myc (1:500, Abcam, ab9106), mouse anti-actin (1:10,000, Sigma, 5316), donkey anti-rabbit IgG conjugated to horseradish peroxidase (HRP)(1:20,000, Amersham Biosciences), and donkey anti-mouse IgG conjugated to horseradish peroxidase (HRP)(1:20,000, Amersham Biosciences).
Background: A western blot detects proteins with antibodies after separation by electrophoresis.

The subject of data set [5] is PLX-4032 sensitive BRAFV600E melanoma cell lines (SK-MeI-28, A375, SK-MeI-5). Put plainly: Proliferation of PLX-4032 sensitive melanoma lines with peptide. As to conditions: increasing doses of R8-myc-tagged WW peptide. Type of data set: cell-based, human. The procedure: (A) Proliferation of PLX-4032 sensitive BRAFV600E melanoma cell lines (P1, SK-MeI-28; P2, A375; and P3, SK-MeI-5) at increasing doses of R8-myc-tagged WW peptide. (B) Proliferation assays of PLX-4032 resistant lines (R1, SK-MeI-28; R2, A375; and R3, SK-MeI-5) treated with 5 μM R8-myc-tagged SCR peptide and DMSO (control), 5 μM SCR peptide and 5 μM PLX-4032 (PLX-4032), or 5 μM R8-myc-tagged WW peptide and DMSO (5 μM WW).
Cell Viability Assay. Genetically modified adherent cancer cell lines were seeded in equivalent, low density cultures in duplicate to 24-well plates. 24 hours post-seeding, media was removed and replaced with 500 uL of a 5:1 mixture of cell media and cell titre blue reagent (Promega). Cultures were incubated with this mixture for 2 hours at 37° C. in the dark. Fluorescence ([…]) for 100 uL in triplicates of each sample was recorded. Incubation with cell titre blue reagent and fluorescent readings were repeated every two days for a total of twelve days. Values plotted correspond to readings taken while control samples are still growing exponentially.

Data set [6] concerns PLX-4032 resistant BRAFV600E melanoma lines (SK-MeI-28, A375, SK-MeI-5). Put plainly: Proliferation of PLX-4032 resistant melanoma lines. Type of data set: cell-based, human. The conditions noted are these: 5 μM R8-myc-tagged WW peptide and DMSO.
In data set [7] the test system is Ras-driven organotypic human epidermal neoplasia. Put plainly: Ras-driven organotypic human epidermal neoplasia (ER:H-RAS/CDK4, 4OHT) invasion. Type of data set: cell-based. As to conditions: peptide 10 uM daily in media vs scrambled control peptide. The procedure:
as §1, §2, §3
Exogenous delivery of the WW domain to human tissue. […] Briefly stromal primary human fibroblasts were seeded onto devitalized human dermis and subsequently elevated to a sterilized annular dermal support (ADS) tissue culture insert device (Ridky, supra). […]

Data set [8] has as its system IQGAP1-Erk1/2 interaction. Put plainly: Immunoprecipitation of endogenous IQGAP1 protein and associated Erk. Type of data set: cell-based, human. As to conditions: 10 μM peptide daily for six days, SK-MeI-28 cells. The procedure:
(A) Immunoprecipitation of endogenous IQGAP1 protein and associated Erk from primary human cells (normal) or BRAFV600E mutant SK-MeI-28 melanoma cells (cancer) following daily treatment with 10 μM R8-myc-tagged SCR or WW peptide for six days. (B) Relative Erk levels as a function of immunoprecipitated IQGAP1 as in (d). n=3, ±SD.
Immunoprecipitation of endogenous IQGAP1 protein and associated Erk. Cells were cross-linked with 1 mL of 20 mM DSP (Thermo Scientific) for 1 hour at 4° C. and the reaction was stopped with washes in 50 mM Tris. Cells were lysed in 20 mM Tris, 150 mM NaCl, 0.2% NP40, 10% Glycerol with 0.5 mM dTT and protease/phosphatase inhibitors added directly before use (buffer 1) for 1 hour at 4° C., but not pelleted. 1 mg lysate in 500 uL was combined with 5 ug of mouse anti-IQGAP1 antibody (Millipore 05-504) in buffer 1 and rocked overnight at 4° C. 30 uL of protein G sepharose 4 fast flow (GE Healthcare) were washed in buffer 1 and combined with lysate for 1 hour at 4° C. Supernatent was removed to check for immunodepletion. Beads were washed 3 times in 20 mM Tris, 150 mM NaCl, 1% Triton X-100 with protease/phosphatase inhibitors added directly before use (buffer 2). Immunoprecipitate was eluted from beads in 200 uL of 4×LDS sample buffer in buffer 1 plus 5% BME. […]

Data set [9] deals with normal human organotypic tissue expressing LacZ.
Data set [10] concerns IQGAP1. Nature of the data set: qRT-PCR validation of IQGAP1 knockdown. Type of data set: cell-based, human. As to conditions: two, four and six days post-nucleofection. The source says:
siRNA-mediated knockdown. For each ERK/MAPK scaffold, siRNA oligos were designed and synthesized by Dharmacon. Subsequently, 1×10^6 early-passage neonatal keratinocytes were electroporated with 2 nMol of each siRNA oligo or 1 nMol each of two siRNA oligos using Amaxa nucleofection reagents and according to the manufacturer's protocol. A nonfunctional siRNA served as a negative control and ERK1/2 siRNA served as positive controls. The following siRNA oligos were used for this study (sense/antisense):
shRNA-mediated knockdown. The vectors for pGIPZ shRNA targeting IQGAP1 were designed and purchased through Open Biosystems catalog number V2LHS-86779 for shIQGAP1.E, V2LHS-86781 for shIQGAP1.F, and V2LHS-259635 for shIQGAP1.G. Cells were transduced as above with 1000× puromycin (1 mg/mL) selection applied daily. Transduction of cells was visualized under a fluorescent microscope
qRT-PCR Expression Analysis. At indicated time points, RNA was harvested from cells via treatment with TRIZOL by the standard Invitrogen protocol. Relative mRNA expression was determined by qRT-PCR analysis using a Stratagene Mx3000P thermocycler and Brilliant II SYBR green QRT-PCR 1-step master mix reagents. Primer concentration was 200 nM with 100 ng RNA. Samples were run in triplicate and normalized to levels of GAPDH mRNA for each reaction. The following primers were used for this study: […]
(In general: Real-time PCR tracks product formation cycle by cycle.)

The mark [11] stands for this setting: drug daily in culture media: UO126 5 μM, SB0203580 2.6 μM, PD98059 18.7 μM, LY294002 5 μM.
Setting [12] is: siRNA-nucleofected keratinocytes.

“Also recorded” adds a separate entry of the source.

Regarding `COc1cccc(-c2cc(=O)c3ccccc3o2)c1N` [PD098059], the neoplastic invasion entry in data set [1] (setting [11]) was “did not have an abrogating effect on neoplastic invasion; also recorded: did not block invasion”.
As for `C[S+]([O-])c1ccc(-c2nc(-c3ccncc3)c(-c3ccc(F)cc3)[nH]2)cc1` (centres unmarked) [SB203580], the neoplastic invasion entry in [1] (setting [11]) is reported as “did not completely block invasion; also recorded: did not see effects”.
Consider `N#CC(=C(/N)Sc1ccccc1N)/C(C#N)=C(/N)Sc1ccccc1N` [UO126], for which, in data set [2], the normal tissue homeostasis entry is given as “without affecting normal tissue homeostasis”.
Turning to “WW peptide: 32 amino acid IQGAP1 WW domain peptide, myc-tagged, made cell penetrating by adding eight arginine residues (RRRRRRRREQKLISEEDLDNNSKWVKHWVKGGYYYYHNLETQEGGWDEPP)”, in data set [3], the “toxic effects to animals” value is listed as “without adverse toxic effects to animals” and the “weight gain of mice” value is recorded as “no negative effects on mouse growth”. For the same compound, in data set [3] (19 mg/kg/day), the “tumorigenesis / tumor growth” value is “diminishes tumorigenesis; also recorded: can inhibit tumorigenesis”. The pErk1/2 levels result in [4] is recorded as “diminished pErk1/2 levels”. Besides, the “proliferation of BRAF mutant melanoma cells” value in [5] was “inhibited proliferation of BRAF mutant melanoma cells in a dose-dependent manner”. For the same compound, the “growth of PLX-4032-resistant melanoma cells” value in data set [6] is “inhibited growth of PLX-4032-resistant melanoma cells similarly to PLX-4032-sensitive parental cells; also recorded: bypasses resistance to B-Raf inhibitors”. In [7], the BMZ degradation entry is “abrogated BMZ degradation” and the neoplastic invasion entry was “abolished neoplastic invasion; also recorded: inhibits neoplastic invasion”. The “total Erk1/2 bound to endogenous IQGAP1” value in [8] is reported as “significantly decreased”.
Turning to “siIQGAP1.A: siRNA to coding sequence of IQGAP1, SEQ ID NO: 11/12 (chain 1 GAACGUGGCUUAUGAGUACUU; chain 2 GUACUCAUAAGCCACGUUCUU; chemistry not given here)”, the neoplastic invasion entry in data set [1] (setting [12]) is on record as “no invasion”. Besides, in [9], the normal tissue phenotype result is given as “phenotypically normal tissue”.
As to “siIQGAP1.B: siRNA to 3′ UTR of IQGAP1, SEQ ID NO: 13/14 (chain 1 CCUCUCGCUCUGAUGGGACAUUUGU; chain 2 ACAAAUGUCCCAUCAGAGCGAGAGG; chemistry not given here)”, the “durability of IQGAP1 knockdown” value in [10] was “more durable knockdown”. In addition, in data set [1] (setting [12]), the neoplastic invasion result is “no invasion”. Besides, in [9], the normal tissue phenotype entry is listed as “phenotypically normal tissue”.
For “siIQGAP1.C: siRNA to 3′ UTR of IQGAP1, SEQ ID NO: 15/16 (chain 1 CAGCCAUCAUGACAUUUACCAUGAA; chain 2 UUCAUGGUAAAUGUCAUGAUGGCUG; chemistry not given here)” the same measures were “more durable knockdown”, “no invasion” and “phenotypically normal tissue”.
